Experimental data taken from PubChem BioAssay AID248 (DTP/NCI, 2004).
Where “and” joins values, the source holds several entries; their conditions need not be identical. Equal values may be shown once. Inconclusive results and toxic doses are left out.

Tested on: L1210 leukemia ip in BDF1 mice, survival T/C
Experiment: NCI In Vivo Anticancer Drug Screen. Data for tumor model L1210 Leukemia (intraperitoneal) in B6D2F1 (BDF1) mice
Settings: endpoint: mean survival time, higher = longer survival
Summary of the method: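 Read-out is survival time, reported as the treated-group measurement over the vehicle-control measurement.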

[1] = dose: 100.0 mg/kg/injection, schedule: Q04DX003 (ip), vehicle: saline
[2] = dose: 200.0 mg/kg/injection, schedule: Q04DX003 (ip), vehicle: saline
[3] = dose: 400.0 mg/kg/injection, schedule: Q04DX003 (ip), vehicle: saline
[4] = dose: 100.0 mg/kg/injection, schedule: Q01DX001 (ip), vehicle: Klucel (hydroxypropylcellulose) (HPC)
[5] = dose: 200.0 mg/kg/injection, schedule: Q01DX001 (ip), vehicle: Klucel (hydroxypropylcellulose) (HPC)
[6] = dose: 100.0 mg/kg/injection, schedule: Q01DX001 (ip), vehicle: saline
[7] = dose: 100.0 mg/kg/injection, schedule: Q04DX002 (ip), vehicle: Klucel (hydroxypropylcellulose) (HPC)

In the case of `CN=C(N)Nc1ccc(NC(=O)c2ccc(C(=O)Nc3ccc(NC(N)=NC)cc3)cc2)cc1`, the T/C (dose: 0.25 mg/kg/injection, schedule: Q01DX015 (ip), vehicle: methylcellulose (MC)) is reported as 113 % of control, the T/C (dose: 0.25 mg/kg/injection, schedule: Q01DX Z (ip), vehicle: carboxymethylcellulose (CMC)) is reported as 107 % of control and the T/C (dose: 0.5 mg/kg/injection, schedule: Q01DX015 (ip), vehicle: methylcellulose (MC)) is reported as 110 % of control. The T/C (dose: 0.5 mg/kg/injection, schedule: Q01DX Z (ip), vehicle: carboxymethylcellulose (CMC)) was 123 % of control, the T/C (dose: 1.0 mg/kg/injection, schedule: Q01DX Z (ip), vehicle: carboxymethylcellulose (CMC)) was 156 % of control and the T/C (dose: 2.0 mg/kg/injection, schedule: Q01DX015 (ip), vehicle: methylcellulose (MC)) was 236 % of control. The T/C (dose: 2.0 mg/kg/injection, schedule: Q01DX Z (ip), vehicle: carboxymethylcellulose (CMC)) was 231 % of control and 254 % of control, the T/C (dose: 4.0 mg/kg/injection, schedule: Q01DX015 (ip), vehicle: methylcellulose (MC)) was 228 % of control and the T/C (dose: 4.0 mg/kg/injection, schedule: Q01DX Z (ip), vehicle: carboxymethylcellulose (CMC)) was 211 % of control. The T/C (dose: 16.0 mg/kg/injection, schedule: Q01DX015 (ip), vehicle: methylcellulose (MC)) was 93 % of control, the T/C (dose: 17.0 mg/kg/injection, schedule: Q01DX Z (ip), vehicle: carboxymethylcellulose (CMC)) was 100 % of control and the T/C (dose: 30.0 mg/kg/injection, schedule: Q01DX001 (ip), vehicle: methylcellulose (MC)) was 163 % of control and 211 % of control. For the same compound, the T/C (dose: 62.0 mg/kg/injection, schedule: Q01DX Z (oral), vehicle: carboxymethylcellulose (CMC)) was 98 % of control, the T/C (dose: 125.0 mg/kg/injection, schedule: Q01DX Z (oral), vehicle: carboxymethylcellulose (CMC)) was 101 % of control and the T/C (dose: 250.0 mg/kg/injection, schedule: Q01DX Z (oral), vehicle: carboxymethylcellulose (CMC)) was 105 % of control. The T/C (dose: 500.0 mg/kg/injection, schedule: Q01DX Z (oral), vehicle: carboxymethylcellulose (CMC)) was 105 % of control.
`O=NNc1ccccn1` was tested, and the T/C (dose: 6.25 mg/kg/injection, schedule: Q04DX003 (ip), vehicle: saline) was 111 % of control, the T/C (dose: 8.0 mg/kg/injection, schedule: Q01DX009 (ip), vehicle: saline) was 116 % of control and the T/C (dose: 8.0 mg/kg/injection, schedule: Q04DX003 (ip), vehicle: saline) was 121 % of control and 123 % of control. The T/C (dose: 12.0 mg/kg/injection, schedule: Q01DX009 (ip), vehicle: saline) was 106 % of control, the T/C (dose: 12.0 mg/kg/injection, schedule: Q04DX003 (ip), vehicle: saline) was 156 % of control and the T/C (dose: 18.0 mg/kg/injection, schedule: Q01DX009 (ip), vehicle: saline) was 119 % of control. For the same compound, the T/C (dose: 50.0 mg/kg/injection, schedule: Q04DX003 (ip), vehicle: saline) was 114 % of control.
`NNc1nc(Cl)cc2c1ncn2C1OC(CO)C(O)C1O` (stereo not drawn) was tested, and the T/C (dose: 100.0 mg/kg/injection, schedule: Q01DX005 (ip), vehicle: saline) was 98 % of control and the T/C (dose: 200.0 mg/kg/injection, schedule: Q01DX005 (ip), vehicle: saline) was 113 % of control.
For `Clc1ccc(CSSCc2ccc(Cl)cc2Cl)c(Cl)c1`, the T/C (dose: 100.0 mg/kg/injection, schedule: Q04DX002 (ip), vehicle: gum acacia) was 95 % of control, the T/C (dose: 200.0 mg/kg/injection, schedule: Q04DX002 (ip), vehicle: gum acacia) was 116 % of control and the T/C (dose: 400.0 mg/kg/injection, schedule: Q04DX002 (ip), vehicle: gum acacia) was 100 % of control.
In the case of `c1ccc2c(c1)c1c(c3ccccc32)CN2CCCC2C1` (stereo not drawn), the T/C (dose: 50.0 mg/kg/injection, schedule: Q01DX001 (ip), vehicle: carboxymethylcellulose (CMC)) is reported as 105 % of control, the T/C (dose: 100.0 mg/kg/injection, schedule: Q01DX001 (ip), vehicle: carboxymethylcellulose (CMC)) is reported as 105 % of control and the T/C (dose: 200.0 mg/kg/injection, schedule: Q01DX001 (ip), vehicle: carboxymethylcellulose (CMC)) is reported as 92 % of control. For the same compound, the T/C (dose: 400.0 mg/kg/injection, schedule: Q01DX001 (ip), vehicle: carboxymethylcellulose (CMC)) was 103 % of control.
In the case of `COc1ccccc1NC(=O)NCc1ccco1`, the T/C (dose: 77.0 mg/kg/injection, schedule: Q01DX Z (ip), vehicle: methylcellulose (MC)) is reported as 90 % of control, the T/C (dose: 116.0 mg/kg/injection, schedule: Q01DX Z (ip), vehicle: methylcellulose (MC)) is reported as 103 % of control and the T/C (dose: 175.0 mg/kg/injection, schedule: Q01DX Z (ip), vehicle: methylcellulose (MC)) is reported as 105 % of control.
`Clc1ccccc1/C=C/C=C1c2ccccc2-c2ccccc21` was tested, and the T/C [1] was 98 % of control and 90 % of control, the T/C [2] was 98 % of control and the T/C [3] was 105 % of control and 92 % of control.
With `CCOC(=O)C(C)C(=O)C(=O)N=C(N)N` (stereo not drawn) the T/C (dose: 100.0 mg/kg/injection, schedule: Q01DX009 (ip), vehicle: saline) was 102 % of control, the T/C [1] was 101 % of control and 103 % of control and the T/C (dose: 200.0 mg/kg/injection, schedule: Q01DX009 (ip), vehicle: saline) was 100 % of control. The T/C [2] was 97 % of control, the T/C (dose: 400.0 mg/kg/injection, schedule: Q01DX009 (ip), vehicle: saline) was 100 % of control and the T/C [3] was 103 % of control and 104 % of control.
`CC(=O)Nc1ccccc1C#N` was tested, and the T/C (dose: 100.0 mg/kg/injection, schedule: Q04DX003 (ip), vehicle: saline sonified) was 104 % of control, the T/C (dose: 200.0 mg/kg/injection, schedule: Q04DX003 (ip), vehicle: saline sonified) was 101 % of control and the T/C (dose: 400.0 mg/kg/injection, schedule: Q04DX003 (ip), vehicle: saline sonified) was 97 % of control.
With `CC1(C)CN=C(c2ccc([N+](=O)[O-])cc2)S1` the T/C [4] was 100 % of control, the T/C [5] was 102 % of control and the T/C (dose: 400.0 mg/kg/injection, schedule: Q01DX001 (ip), vehicle: Klucel (hydroxypropylcellulose) (HPC)) was 100 % of control.
For `NC(=S)NN=C1CCCCCCCCC1`, the T/C [6] was 102 % of control.
`O=C(O)C1=CCCc2ccc(Br)cc21` was tested, and the T/C (dose: 50.0 mg/kg/injection, schedule: Q01DX009 (ip), vehicle: saline with Tween-80) was 93 % of control, the T/C (dose: 100.0 mg/kg/injection, schedule: Q01DX009 (ip), vehicle: saline with Tween-80) was 95 % of control and the T/C (dose: 200.0 mg/kg/injection, schedule: Q01DX009 (ip), vehicle: saline with Tween-80) was 98 % of control.
In the case of `CCN(CC)CC(=O)c1ccc(O)c(O)c1`, the T/C (dose: 53.0 mg/kg/injection, schedule: Q01DX Z (ip), vehicle: carboxymethylcellulose (CMC)) is reported as 109 % of control, the T/C (dose: 83.0 mg/kg/injection, schedule: Q01DX Z (ip), vehicle: carboxymethylcellulose (CMC)) is reported as 120 % of control and the T/C (dose: 125.0 mg/kg/injection, schedule: Q01DX Z (ip), vehicle: carboxymethylcellulose (CMC)) is reported as 105 % of control. The T/C (dose: 187.0 mg/kg/injection, schedule: Q01DX Z (ip), vehicle: carboxymethylcellulose (CMC)) was 115 % of control.
With `COc1ccc(OC)c(NC(=O)c2ccc(N(CCc3cnc4nc(NC(C)=O)[nH]c(=O)c4n3)C(=O)C(F)(F)F)cc2)c1` the T/C (dose: 100.0 mg/kg/injection, schedule: Q01DX009 (ip), vehicle: carboxymethylcellulose (CMC)) was 104 % of control, the T/C (dose: 100.0 mg/kg/injection, schedule: Q04DX003 (ip), vehicle: other) was 97 % of control and the T/C (dose: 200.0 mg/kg/injection, schedule: Q01DX009 (ip), vehicle: carboxymethylcellulose (CMC)) was 94 % of control. For the same compound, the T/C (dose: 200.0 mg/kg/injection, schedule: Q04DX003 (ip), vehicle: other) was 97 % of control, the T/C (dose: 400.0 mg/kg/injection, schedule: Q01DX009 (ip), vehicle: carboxymethylcellulose (CMC)) was 94 % of control and the T/C (dose: 400.0 mg/kg/injection, schedule: Q04DX003 (ip), vehicle: other) was 92 % of control.
In the case of `O=C(O)/C=C/C(=O)Nc1cccc(NC(=O)/C=C/C(=O)O)c1`, the T/C (dose: 100.0 mg/kg/injection, schedule: Q04DX003 (ip), vehicle: Klucel (hydroxypropylcellulose) (HPC)) is reported as 94 % of control, the T/C (dose: 200.0 mg/kg/injection, schedule: Q04DX003 (ip), vehicle: Klucel (hydroxypropylcellulose) (HPC)) is reported as 97 % of control and the T/C (dose: 400.0 mg/kg/injection, schedule: Q04DX003 (ip), vehicle: Klucel (hydroxypropylcellulose) (HPC)) is reported as 96 % of control.
In the case of `Cc1ccc(CSC(=N)N)cc1C`, the T/C (dose: 25.0 mg/kg/injection, schedule: Q04DX002 (ip), vehicle: Klucel (hydroxypropylcellulose) (HPC)) is reported as 98 % of control, the T/C (dose: 50.0 mg/kg/injection, schedule: Q04DX002 (ip), vehicle: Klucel (hydroxypropylcellulose) (HPC)) is reported as 103 % of control and the T/C [7] is reported as 101 % of control.
With `CCOP(=O)(OCC)Oc1c(Cl)c(Cl)c(Cl)c(Cl)c1Cl` the T/C [7] was 104 % of control, the T/C (dose: 200.0 mg/kg/injection, schedule: Q04DX002 (ip), vehicle: Klucel (hydroxypropylcellulose) (HPC)) was 100 % of control and the T/C (dose: 400.0 mg/kg/injection, schedule: Q04DX002 (ip), vehicle: Klucel (hydroxypropylcellulose) (HPC)) was 107 % of control.
`CC(C)(C)N=O` was tested, and the T/C [4] was 103 % of control and the T/C [5] was 114 % of control.
In the case of `CCCCCC/C(C)=N/Nc1ccc([N+](=O)[O-])cc1[N+](=O)[O-]`, the T/C [6] is reported as 93 % of control, the T/C (dose: 200.0 mg/kg/injection, schedule: Q01DX001 (ip), vehicle: saline) is reported as 102 % of control and the T/C (dose: 400.0 mg/kg/injection, schedule: Q01DX001 (ip), vehicle: saline) is reported as 100 % of control.
